Where two headings read alike, the source gives them in different places.
Assays:
[1] = test system: Wolbachia in C6/36 (wAlbB) cells; test: Secondary concentration response HTS (IC50) anti-Wolbachia screen in C6/36 (wAlbB) insect cells; type: cell-based, Wolbachia pipientis wAlbB (in Aedes albopictus C6/36 cells); conditions: Wolbachia, 168 h, 7-day incubation, 10-point concentration range
Method: Initially C6/36 (wAlbB) cells (insect cells stably infected with the Wolbachia target) from a single cryopreserved batch were recovered over 7 days prior to plating into 384-well assay ready plates (containing the test compounds), using a semi-automated process allowing for daily batches of ~150 plates, set up 4 days per week for 8 weeks. After a 7-day incubation period with the test compounds the plates were moved into the second fully automated stage (using the Agilent Technologies BioCel system) involving formaldehyde fixation, DNA staining of the insect cell nuclei (Hoechst) for toxicity analysis and antibody staining specific to the intracellular Wolbachia (wBmPAL primary antibody and far-red secondary antibody). In the final stage the fixed and stained plates from stage 2 were processed through automated data acquisition (High Res Biosolutions system, incorporating EnVision™ and acumen® plate readers). This industry standardised assay was then used to screen AstraZeneca’s full library of 1.3 million compounds within 10 weeks. In total this HTS included 30 × 3 week assays covering 3835 × 384-well plates. This primary HTS generated 20,255 hits defined as >80% reduction in Wolbachia with <60% toxicity to the host insect cell (eliminating false positives). This represents an overall hit rate of 1.56%. These compounds are depicted in chemical space in Fig. 2 (black points)[21].
The mosquito (Aedes albopictus) derived cell line C6/36 (ATCC® CRL 1660), stably infected with Wolbachia pipientis wAlbB (C6/36(wAlbB)), was maintained in Leibovitz L15 medium containing 2 mM L-glutamine, 1% nonessential amino acids, 2% tryptose phosphate broth and 20% heat-inactivated foetal bovine serum (FBS) at 26 °C[18]. This screen exclusively used cells from the large-scale cryopreserved batch produced as part of this campaign by culturing the cells at scale before cryopreservation (90% FBS and 10% DMSO). This produced a cell bank of 190 × 1 ml cryovials containing 3 × 10^7 cells per vial.
(§1) On day 0, a single cryovial was recovered and the cells washed before being transferred to a T225 cm^2 flask. After a 7-day recovery Wolbachia infection level (quality control (QC)) was checked by SYTO®11 DNA staining of both the host cell nuclei and intracellular Wolbachia. The end-point read out from the Operetta® high content imaging system (Perkin Elmer) was the percentage of cells infected with Wolbachia. This was obtained from cytoplasm texture analysis by the associated Harmony® software. Cells with a >50% of the population infected with Wolbachia were classed as having a good Wolbachia level and therefore used for screening through addition of 2000 cells per well into assay ready 384-well plates containing the test compounds. […] Each plate included on-board controls; vehicle/DMSO (total/maximum Wolbachia signal) or doxycycline 5 µM (null/minimum Wolbachia signal), resulting in single shot screening of 352 compounds per plate for the primary screen. […] QC plates were also created including full columns of the following controls; DMSO (total/max), 5 μM doxycycline (null/min), as well as 50 nM doxycycline (reference/medium Wolbachia signal). Daily batches contained ~150 compound plates in addition to the QC plates. Each compound plate was foil sealed before incubation for 7 days at 26 °C, 95% humidity and atmospheric air.
After 7 days of drug incubation, the plates were loaded into the fully automated BioCel system which performed the following additions; fixation and DNA staining (1.8% formaldehyde + 0.6 µg/ml Hoechst 33342, 20 min), permeabilisation (80 μl of PBS + 0.25% Triton-X 100, 30 min), blocking (PBS + 6% BSA, 40 min), overnight incubation in the Wolbachia-specific anti-wBmPAL primary antibody[34] […]

[2] = test system: Wolbachia in C6/36 (wAlbB) cells; test: Confirmatory re-assessment in the insect cell screen (cell assay EC50); type: cell-based, Wolbachia pipientis wAlbB (in Aedes albopictus C6/36 cells); conditions: for EC50: Wolbachia, C6/36, insect cell screen, re-sourced or re-synthesised samples
Description: To further validate the hit molecules from these 9 clusters, samples were sourced either from the AstraZeneca compound inventory or through re-synthesis. All 18 samples were characterised by nuclear magnetic resonance (NMR) and mass spectroscopy to confirm their chemical structures and by HPLC/LCMS to establish their purity (Supplementary Table 5 and Supplementary Data 1). These samples were also subject to confirmatory re-assessment in both the insect cell screen and Mf assays for anti-Wolbachia potency alongside confirmation of DMPK properties (LogD7.4, aqueous solubility in pH 7.4 PBS, human microsomal turnover, rat hepatocyte turnover and human plasma protein binding) (Fig. 4, Supplementary Figure 1 and Supplementary Table 4).
as §1

[3] = test system: Wolbachia within Brugia malayi Mf; test: B. malayi microfilarial (Mf) in vitro anti-Wolbachia assay (wsp:gst qPCR); type: cell-based
Method: The Mf were obtained by peritoneal lavage, using a catheter, of gerbils (Meriones unguiculatus) harbouring a patent infection of B. malayi. Mf were purified using a PD-10 desalting column (Fisher), centrifuged (311 RCF for 5 min at room temperature) before the addition of 8000 Mf/well of a 96-well plate (100 µl per well) in complete media consisting of RPMI supplemented with 10% FBS, 1% penicillin streptomycin and 1% amphotericin B. […] Each plate contained doxycycline (5 µM) and DMSO controls. After incubation at 37 °C for 6 days in 5% CO2, visual assessment of Mf motility was performed and scored from 0 to 4 per well (where 0 = no movement and 4 = highly motile). DNA extraction per sample was performed using the QIAmp DNA Mini Kit before quantitative PCR was performed to obtain the ratio of Wolbachia Surface Protein gene copy number (wsp) to Glutathione S-Transferase gene copy number (gst)[36]. The DNA was amplified using the primers as indicated in Supplementary Table 6.
The wsp:gst ratio data allowed for normalisation of the Wolbachia level to the Mf biomass for each well. The change in wsp:gst for each compound compared to the DMSO control was calculated before normalisation to the onboard doxycycline control to allow for inter-assay comparison.

[4] = Human microsome clearance; type: in vitro ADME; conditions: for microsomal CLint: human, human microsomes
Description: (§2) The DMPK data used for triaging compounds, including LogD7.4, aqueous solubility, plasma protein binding, microsome and hepatocyte clearance measurements, were generated using the standard AstraZeneca UK high-throughput platform[37],[38].

LogD7.4 = type: physicochemical; conditions: pH 7.4
Description: as §2

[5] = Human plasma protein binding; type: in vitro ADME; conditions: plasma
Description: as §2

[6] = Brugia malayi, 144 h, B. malayi Mf, 6 days, read-out: Mf EC50
[7] = category bounds in the picture of Fig. 4, read-out: Mf EC50 (category given in Fig. 4)

SMILES	EC50 [3, 6] [nM]	EC50 [3, 7] [nM]	Human microsomal stability (in words) [4]	microsomal CLint [4] [µL/min/mg]	logD (LogD7.4)	fraction unbound [5]	Metabolic stability (in words) ([4]; in vitro, system not given)	IC50 [1] [nM]	Insect cell screen activity (in words) [2]	EC50 [2] [nM]	Mf in vitro potency (in words) [3]
COc1ccc(CC(=O)Nc2[nH]nc(C)c2-c2ccccc2)c(Cl)c1 [2A, 2-(2-chloro-4-methoxyphenyl)-N-(3-methyl-4-phenyl-1H-pyrazol-5-yl)acetamide]	164	< 200		41.2	3.1	0.021		2390		242	
Cc1nccc(N2CCC(C(=O)N(C)CCN(C)S(=O)(=O)c3ccc(Br)cc3)CC2)n1 [1A, N-(2-((4-bromo-N-methylphenyl)sulfonamido)ethyl)-N-methyl-1-(2-methylpyrimidin-4-yl)piperidine-4-carboxamide]	~161	< 200		211	2.6	0.24		184		192	
CC1COCCN1c1cc(OCc2ccccc2)nc(-c2nccn2C)n1 (stereo not shown) [3A, 4-(6-(benzyloxy)-2-(1-methyl-1H-imidazol-2-yl)pyrimidin-4-yl)-3-methylmorpholine]	~183	< 200		59.7	3.3	0.042		968		662	

More lines, main results first:

EC50 [3, 6] [nM]	EC50 [3, 7] [nM]	Human microsomal stability (in words) [4]	microsomal CLint [4] [µL/min/mg]	logD (LogD7.4)	fraction unbound [5]	Metabolic stability (in words) ([4]; in vitro, system not given)	SMILES	IC50 [1] [nM]	Insect cell screen activity (in words) [2]	EC50 [2] [nM]	Mf in vitro potency (in words) [3]
~219	200 to 1000	poor	92	3.2	0.078		CCc1ccc(CN2CCCC2c2nc(C(=O)N(C)C)cs2)s1 (stereo not shown) [4A, 2-(1-((5-ethylthiophen-2-yl)methyl)pyrrolidin-2-yl)-N,N-dimethylthiazole-4-carboxamide]	145	strong	41	good
~271	200 to 1000		39.5	3.5	0.073	moderate	Cc1nc(C(=O)NC(C)c2ccc(F)cc2)c(NC(=O)Cc2ccccc2)[nH]1 (stereo not shown) [5A, N-(1-(4-fluorophenyl)ethyl)-2-methyl-5-(2-phenylacetamido)-1H-imidazole-4-carboxamide]	594		296	comparatively good
